Reference: patent US12441718B2, “Selective angiotensin II compounds” (VICORE PHARMA AB, priority 2021, dated 2025)
Where two headings read alike, the source gives them in different places.

Columns and labels:
[1] = Metabolic stability in pooled human liver microsomes; assay type: in vitro ADME; conditions: human, pooled human liver microsomes, pooled human liver microsomes 0.5 mg/mL, 1 μM test compound, 37° C., * rows = mean of two runs
Method in brief: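 Pooled human liver microsomes (0.5 mg/mL in PBS) preincubated ±1 mM NADPH at 37° C; test compound added at 10 min to 1 μM final. Samples at 0, 5, 15 and 60 min quenched in acetonitrile, parent quantified by LC-MS/MS against a standard curve (terfenadine internal standard). Initial metabolic rate calculated with and without NADPH.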

[2] = molecular target: T1, human recombinant AT2 receptor (Homo sapiens, UniProt P50052); experiment: Binding to AT2 receptor, radiometric scintillation assay (Eurofins ITEM26); conditions: ligand 125I CGP 42112A, * rows = mean of runs; for Ki: seven-point dose-response curve; for IC50: test compounds at 1, 10, 100 and 1000 nM, read-out: AT2 GraFit IC50
T1 construct: purchased Eurofins ITEM26 (protocol number)
T1 sequence (P50052 1-363): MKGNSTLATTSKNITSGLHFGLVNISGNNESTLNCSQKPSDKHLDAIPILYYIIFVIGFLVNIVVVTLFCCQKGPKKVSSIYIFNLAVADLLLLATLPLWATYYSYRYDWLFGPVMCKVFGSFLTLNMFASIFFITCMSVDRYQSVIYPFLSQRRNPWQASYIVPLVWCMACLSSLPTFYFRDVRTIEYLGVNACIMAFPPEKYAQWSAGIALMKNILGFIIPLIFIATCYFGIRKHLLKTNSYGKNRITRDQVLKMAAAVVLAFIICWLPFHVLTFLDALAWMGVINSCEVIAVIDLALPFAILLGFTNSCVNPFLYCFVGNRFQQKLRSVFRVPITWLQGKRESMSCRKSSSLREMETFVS

[3] = molecular target: T2, human recombinant AT1 receptor (Homo sapiens, UniProt P30556); experiment: Binding to AT1 receptor, radiometric scintillation assay (Eurofins ITEM24); conditions: test compounds at 1 and 10 μM, ligand 125I(sar1,Ile8)-AT-II; * rows = mean of runs
T2 construct: purchased Eurofins ITEM24 (protocol number)
T2 sequence (P30556 1-359): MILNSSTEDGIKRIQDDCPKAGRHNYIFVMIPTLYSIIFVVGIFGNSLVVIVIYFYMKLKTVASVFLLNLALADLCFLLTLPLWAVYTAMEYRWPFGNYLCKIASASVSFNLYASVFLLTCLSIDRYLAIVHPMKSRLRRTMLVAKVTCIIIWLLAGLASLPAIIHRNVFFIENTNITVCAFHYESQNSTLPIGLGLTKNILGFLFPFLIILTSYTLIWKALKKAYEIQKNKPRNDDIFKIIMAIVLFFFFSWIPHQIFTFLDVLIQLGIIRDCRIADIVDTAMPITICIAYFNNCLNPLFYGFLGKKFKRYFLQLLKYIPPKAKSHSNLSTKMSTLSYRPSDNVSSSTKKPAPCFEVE

CYP1A2 = molecular target: T3, CYP1A2 (Homo sapiens, UniProt P05177); experiment: in vitro; assay type: in vitro ADME; conditions: human, microsomes, human liver microsomes, substrate phenacetin, read-out: CYP1A2 Inh %
T3 construct: isoform-specific substrates incubated with human liver microsomes; tissue Eurofins ITEMG232 (protocol number); host or cells: human liver microsomes
Procedure: The following substrates were used; CYP1A phenacetin, CYP2B36 bupropion, CYP2C8 paclitaxel and amodiaquine, CYP2C9 diclofenac, CYP2C19 omeprazole, CYP2D6 dextromethorphan, CYP3A midazolam and testosterone.
At the end of the incubation, the formation of metabolite was monitored by HPLC-MS/MS as the peak area response.

CYP2B6 = molecular target: T4, CYP2B6 (Homo sapiens, UniProt P20813); experiment: CYP inhibition in human liver microsomes (Eurofins ITEMG232); assay type: in vitro ADME; conditions: probe bupropion, substrate bupropion, read-out: CYP2B6 Inh %
T4 construct: isoform-specific substrates incubated with human liver microsomes; tissue Eurofins ITEMG232 (protocol number); host or cells: human liver microsomes
T4 sequence (P20813 1-491): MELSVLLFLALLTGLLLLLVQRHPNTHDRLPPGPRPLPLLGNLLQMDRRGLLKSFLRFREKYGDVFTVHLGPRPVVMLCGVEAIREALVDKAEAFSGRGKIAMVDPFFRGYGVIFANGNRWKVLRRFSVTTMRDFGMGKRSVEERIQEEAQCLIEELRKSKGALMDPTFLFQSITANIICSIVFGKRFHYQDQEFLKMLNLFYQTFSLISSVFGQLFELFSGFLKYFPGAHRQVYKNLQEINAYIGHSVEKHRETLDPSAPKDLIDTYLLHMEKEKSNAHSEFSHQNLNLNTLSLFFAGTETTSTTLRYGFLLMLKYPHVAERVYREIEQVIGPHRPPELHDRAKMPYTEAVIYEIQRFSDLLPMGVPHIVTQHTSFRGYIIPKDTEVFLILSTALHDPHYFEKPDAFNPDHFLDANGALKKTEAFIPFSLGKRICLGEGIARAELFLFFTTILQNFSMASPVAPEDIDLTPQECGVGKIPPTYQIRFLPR

CYP2C19 = molecular target: T5, CYP2C19 (Homo sapiens, UniProt P33261); experiment: as above; assay type: in vitro ADME; conditions: human, probe omeprazole, substrate omeprazole, read-out: CYP2C19 Inh %
T5 construct: isoform-specific substrates incubated with human liver microsomes; tissue Eurofins ITEMG232 (protocol number); host or cells: human liver microsomes

CYP2C8 = molecular target: T6, CYP2C8 (Homo sapiens, UniProt P10632); experiment: as above; assay type: in vitro ADME; conditions: human, probe paclitaxel and amodiaquine, substrate paclitaxel and amodiaquine, read-out: CYP2C8 Inh %
T6 construct: isoform-specific substrates incubated with human liver microsomes; tissue Eurofins ITEMG232 (protocol number); host or cells: human liver microsomes
T6 sequence (P10632 1-490): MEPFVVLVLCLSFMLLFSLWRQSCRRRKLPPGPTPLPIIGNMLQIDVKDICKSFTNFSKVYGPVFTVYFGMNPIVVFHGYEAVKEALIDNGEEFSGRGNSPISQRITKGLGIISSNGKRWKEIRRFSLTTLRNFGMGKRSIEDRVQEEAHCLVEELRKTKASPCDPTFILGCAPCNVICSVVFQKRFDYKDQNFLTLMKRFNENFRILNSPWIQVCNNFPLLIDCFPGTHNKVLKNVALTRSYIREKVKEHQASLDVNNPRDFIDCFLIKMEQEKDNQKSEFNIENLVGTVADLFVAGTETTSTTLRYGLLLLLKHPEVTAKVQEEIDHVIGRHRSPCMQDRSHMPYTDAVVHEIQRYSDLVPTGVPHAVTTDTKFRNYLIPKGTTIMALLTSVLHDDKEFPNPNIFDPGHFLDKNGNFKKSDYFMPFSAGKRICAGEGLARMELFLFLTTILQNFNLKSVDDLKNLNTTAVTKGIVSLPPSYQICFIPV

CYP2D6 = molecular target: T7, CYP2D6 (Homo sapiens, UniProt P10635); experiment: as above; assay type: in vitro ADME; conditions: probe dextromethorphan, substrate dextromethorphan, read-out: CYP2D6 Inh %
T7 construct: isoform-specific substrates incubated with human liver microsomes; tissue Eurofins ITEMG232 (protocol number); host or cells: human liver microsomes

CYP3A4&5 = experiment: in vitro; conditions: human, human liver microsomes, probe testosterone;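 also: Read-out is the metabolite generated from the probe substrate, quantified as HPLC-MS/MS peak area once incubation ends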
CYP2C9 = CYP2C9 (Homo sapiens, UniProt P11712); experiment: CYP inhibition in human liver microsomes (Eurofins ITEMG232); assay type: in vitro ADME; parameters: isoform-specific substrates incubated with human liver microsomes; tissue Eurofins ITEMG232 (protocol number); host or cells: human liver microsomes; conditions: human, probe diclofenac, substrate diclofenac, read-out: CYP2C9 Inh %
CYP3A4 = CYP3A4 (Homo sapiens, UniProt P08684); experiment: CYP inhibition in human liver microsomes (Eurofins ITEMG232), midazolam substrate; assay type: in vitro ADME; parameters: isoform-specific substrates incubated with human liver microsomes; tissue Eurofins ITEMG232 (protocol number); host or cells: human liver microsomes; conditions: human, probe midazolam, read-out: CYP3A4 midazolam Inh %
[4] = with 1 mM NADPH, read-out: T1/2, + NaDPH
[5] = without NADPH, read-out: T1/2, no NaDPH

Chain of CYP2C9 (P11712 whole entry, canonical isoform): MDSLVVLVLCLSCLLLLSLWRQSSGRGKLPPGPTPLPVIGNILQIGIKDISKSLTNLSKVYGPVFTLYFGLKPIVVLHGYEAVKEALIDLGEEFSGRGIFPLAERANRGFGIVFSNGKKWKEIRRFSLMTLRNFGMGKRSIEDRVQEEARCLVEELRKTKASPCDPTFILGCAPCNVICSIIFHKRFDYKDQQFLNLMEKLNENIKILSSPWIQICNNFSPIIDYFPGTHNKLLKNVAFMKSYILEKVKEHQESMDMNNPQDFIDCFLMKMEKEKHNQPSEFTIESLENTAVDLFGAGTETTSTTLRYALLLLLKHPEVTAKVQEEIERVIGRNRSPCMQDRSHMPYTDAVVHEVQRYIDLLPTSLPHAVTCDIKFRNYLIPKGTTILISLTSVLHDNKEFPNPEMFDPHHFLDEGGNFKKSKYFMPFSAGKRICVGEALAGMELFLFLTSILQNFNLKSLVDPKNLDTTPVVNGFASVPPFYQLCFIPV
Chain of CYP3A4 (P08684 whole entry, canonical isoform): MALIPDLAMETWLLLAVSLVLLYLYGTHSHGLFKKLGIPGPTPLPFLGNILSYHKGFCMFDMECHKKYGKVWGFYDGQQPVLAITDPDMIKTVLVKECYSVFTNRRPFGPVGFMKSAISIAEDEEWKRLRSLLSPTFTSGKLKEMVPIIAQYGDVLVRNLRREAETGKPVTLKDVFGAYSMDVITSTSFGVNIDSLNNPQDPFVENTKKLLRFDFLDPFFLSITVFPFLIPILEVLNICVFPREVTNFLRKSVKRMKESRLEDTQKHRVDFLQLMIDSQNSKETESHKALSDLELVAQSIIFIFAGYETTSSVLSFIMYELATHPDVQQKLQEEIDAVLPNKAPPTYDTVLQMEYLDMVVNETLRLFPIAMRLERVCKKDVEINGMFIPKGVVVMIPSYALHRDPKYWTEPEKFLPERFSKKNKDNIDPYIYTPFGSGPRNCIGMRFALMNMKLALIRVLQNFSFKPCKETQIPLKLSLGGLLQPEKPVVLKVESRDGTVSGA
T3 sequence (P05177 whole entry, canonical isoform): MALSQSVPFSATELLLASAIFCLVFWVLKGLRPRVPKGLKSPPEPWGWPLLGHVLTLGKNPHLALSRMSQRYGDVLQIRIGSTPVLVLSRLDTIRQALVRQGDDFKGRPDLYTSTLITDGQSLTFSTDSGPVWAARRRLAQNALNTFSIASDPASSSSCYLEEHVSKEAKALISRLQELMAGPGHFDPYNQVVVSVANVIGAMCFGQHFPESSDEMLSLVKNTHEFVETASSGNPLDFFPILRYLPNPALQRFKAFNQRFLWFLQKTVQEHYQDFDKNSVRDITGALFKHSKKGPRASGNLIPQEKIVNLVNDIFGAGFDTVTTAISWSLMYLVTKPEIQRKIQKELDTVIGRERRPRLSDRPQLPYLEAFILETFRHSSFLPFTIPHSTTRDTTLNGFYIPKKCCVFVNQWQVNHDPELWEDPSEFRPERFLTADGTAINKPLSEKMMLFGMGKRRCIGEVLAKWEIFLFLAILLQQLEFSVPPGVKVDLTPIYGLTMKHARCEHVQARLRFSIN
T5 sequence (P33261 whole entry, canonical isoform): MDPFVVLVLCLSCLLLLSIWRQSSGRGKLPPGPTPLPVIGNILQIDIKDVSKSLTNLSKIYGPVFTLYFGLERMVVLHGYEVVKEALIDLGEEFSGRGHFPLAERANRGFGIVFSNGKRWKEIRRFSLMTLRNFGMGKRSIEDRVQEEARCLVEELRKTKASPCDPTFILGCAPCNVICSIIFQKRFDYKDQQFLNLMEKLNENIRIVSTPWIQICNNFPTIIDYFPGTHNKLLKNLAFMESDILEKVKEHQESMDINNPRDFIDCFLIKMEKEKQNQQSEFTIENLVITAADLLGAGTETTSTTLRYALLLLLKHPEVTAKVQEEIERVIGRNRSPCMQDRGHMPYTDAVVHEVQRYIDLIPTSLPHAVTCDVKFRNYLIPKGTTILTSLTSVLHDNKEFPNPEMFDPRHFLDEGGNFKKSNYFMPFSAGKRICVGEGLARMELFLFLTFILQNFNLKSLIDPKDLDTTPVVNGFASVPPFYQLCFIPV
T7 sequence (P10635 whole entry, canonical isoform): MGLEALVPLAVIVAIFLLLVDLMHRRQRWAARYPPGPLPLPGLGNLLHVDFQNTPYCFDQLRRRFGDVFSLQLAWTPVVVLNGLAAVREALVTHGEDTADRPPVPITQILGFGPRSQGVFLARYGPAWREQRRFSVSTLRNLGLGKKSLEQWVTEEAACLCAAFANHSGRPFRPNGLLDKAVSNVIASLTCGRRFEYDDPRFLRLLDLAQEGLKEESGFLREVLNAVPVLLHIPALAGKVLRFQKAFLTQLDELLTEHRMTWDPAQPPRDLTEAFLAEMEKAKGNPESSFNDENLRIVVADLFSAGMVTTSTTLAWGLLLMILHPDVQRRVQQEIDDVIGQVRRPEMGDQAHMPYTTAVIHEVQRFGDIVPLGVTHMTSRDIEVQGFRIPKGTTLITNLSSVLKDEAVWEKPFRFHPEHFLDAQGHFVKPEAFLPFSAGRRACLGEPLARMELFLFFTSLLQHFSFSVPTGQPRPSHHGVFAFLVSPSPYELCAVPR

| SMILES | half-life at 1 μM [1, 4] [h] | half-life at 1 μM [1, 5] [h] | Ki [2] [nM] | IC50 [2] [nM] | IC50 [3] [nM] | inhibition at 10 µM (CYP1A2) [%] | inhibition at 10 µM (CYP2B6) [%] | inhibition at 10 µM (CYP2C19) [%] | inhibition at 10 µM (CYP2C8) [%] | inhibition at 10 µM (CYP2D6) [%] | inhibition at 10 µM (CYP3A4&5) [%] | inhibition at 10 µM (CYP2C9) [%] | inhibition at 10 µM (CYP3A4) [%] |
| --- | --- | --- | --- | --- | --- | --- | --- | --- | --- | --- | --- | --- | --- |
| CC(C)Cc1ccc(S(=O)(=O)Nc2ncc(F)cn2)c(-c2ccc(Cn3ccnc3C(C)(C)C)cc2)c1 [Example 3, 4′-((2-(tert-Butyl)-1H-imidazol-1-yl)methyl)-N-(5-fluoropyrimidin-2-yl)-5-isobutyl-[1,1′-biphenyl]-2-sulfonamide] | > 1 | > 1 | 2.4 | 4.79 | 14300 | -33.8 | -0.5 | 36.9 | 89.2 | 17.2 | 26.8 | 4 | 49.8 |
| CC(C)Cc1ccc(S(=O)(=O)Nc2ncc(C(F)(F)F)cn2)c(-c2ccc(Cn3ccnc3C(C)(C)C)cc2)c1 [Example 4, 4′-((2-(tert-Butyl)-1H-imidazol-1-yl)methyl)-5-isobutyl-N-(5-(trifluoromethyl)pyrimidin-2-yl)-[1,1′-biphenyl]-2-sulfonamide] | > 1 | > 1 | 6.18 | 12.4 | 6200 | 19.5 | 36.2 | 62.3 | 94.3 | 21.5 | 1.5 | 68.3 | 33.8 |
| CC(C)Cc1ccc(S(=O)(=O)Nc2ncccn2)c(-c2ccc(Cn3ccnc3C(C)(C)C)c(F)c2)c1 [Example 7, 4′-((2-(tert-Butyl)-1H-imidazol-1-yl)methyl)-3′-fluoro-5-isobutyl-N-(pyrimidin-2-yl)-[1,1′-biphenyl]-2-sulfonamide] | 0.9 | > 1 | 1.27 | 2.54 | 15000 | 45.9 | 38.9 | 41 | 78 | 15 | 3.7 | 41.3 | -12.5 |

Next, values leading:

| half-life at 1 μM [1, 4] [h] | half-life at 1 μM [1, 5] [h] | Ki [2] [nM] | IC50 [2] [nM] | IC50 [3] [nM] | inhibition at 10 µM (CYP1A2) [%] | inhibition at 10 µM (CYP2B6) [%] | inhibition at 10 µM (CYP2C19) [%] | inhibition at 10 µM (CYP2C8) [%] | inhibition at 10 µM (CYP2D6) [%] | inhibition at 10 µM (CYP3A4&5) [%] | inhibition at 10 µM (CYP2C9) [%] | inhibition at 10 µM (CYP3A4) [%] | SMILES |
| --- | --- | --- | --- | --- | --- | --- | --- | --- | --- | --- | --- | --- | --- |
| > 1 | > 1 | 2.05 | 4.11 | 5200 | 48.6 | 30.4 | 35.8 | 91.6 | 16.4 | -14.9 | 73.1 | 7.7 | CC(C)Cc1ccc(S(=O)(=O)Nc2ncc(F)cn2)c(-c2ccc(Cn3ccnc3C(C)(C)C)c(F)c2)c1 [Example 9, 4′-((2-(tert-Butyl)-1H-imidazol-1-yl)methyl)-3′-fluoro-N-(5-fluoropyrimidin-2-yl)-5-isobutyl-[1,1′-biphenyl]-2-sulfonamide] |
| 0.967 | > 1 | 2.08 | 4.17 | 1700 | 16.7 | 35.8 | 48.9 | 89.6 | 18.4 | -41.8 | 82.3 | 14.6 | CC(C)Cc1ccc(S(=O)(=O)Nc2ncc(C#N)cn2)c(-c2ccc(Cn3ccnc3C(C)(C)C)c(F)c2)c1 [Example 12, 4′-((2-(tert-Butyl)-1H-imidazol-1-yl)methyl)-N-(5-cyanopyrimidin-2-yl)-3′-fluoro-5-isobutyl-[1,1′-biphenyl]-2-sulfonamide] |
| 0.667 | > 1 | 3.75 | 7.5 | 22700 | 10.7 | 12.5 | 48 | 40.9 | 20.1 | 28.1 | 69 | 47.5 | Cc1cnc(NS(=O)(=O)c2ccc(CC(C)C)cc2-c2ccc(Cn3ccnc3C(C)(C)C)cc2)nc1 [Example 20, 4′-((2-(tert-Butyl)-1H-imidazol-1-yl)methyl)-5-isobutyl-N-(5-methylpyrimidin-2-yl)-[1,1′-biphenyl]-2-sulfonamide] |
